From the supplement of paper PMC10307832

What was measured:
Experiment in all cases: relative viability (nuclei count vs DMSO), 5 days (fraction); higher = more cells survive
COR-L23 = system: COR-L23
Procedure, shortened: (§1)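 A single step with final 0.05% Triton X-100, 1% formaldehyde and 1 ug/ml Hoechst fixed the cells and stained nuclei 5 days after treatment. Lung cancer cell lines in 1536-well plates had been treated by pin tool the day after seeding with one drug alone or a fixed anchor-drug dose plus five library-drug doses (not always all listed) in √10 steps, and nuclei were counted on 4× images. Relative viability is the ratio of nuclei in treated wells to nuclei in vehicle wells, taken as the median of duplicate plates.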

ChaGo-K-1 = system: ChaGo-K-1
Procedure, shortened: as §1

EMC-BAC-2 = system: EMC-BAC-2
Procedure, shortened: as §1

EPLC-272H = system: EPLC-272H
Procedure, shortened: as §1

HCC-44 = system: HCC-44
Procedure, shortened: as §1

HOP-62 = system: HOP-62
Procedure, shortened: as §1

LCLC-103H = system: LCLC-103H
Procedure, shortened: as §1

LK-2 = system: LK-2
Procedure, shortened: as §1

NCI-H1355 = system: NCI-H1355
Procedure, shortened: as §1

NCI-H1666 = system: NCI-H1666
Procedure, shortened: as §1

NCI-H1944 = system: NCI-H1944
Procedure, shortened: as §1

NCI-H1975 = system: NCI-H1975
Procedure, shortened: as §1

NCI-H2023 = system: NCI-H2023
Procedure, shortened: as §1

NCI-H2087 = system: NCI-H2087
Procedure, shortened: as §1

NCI-H2126 = system: NCI-H2126
Procedure, shortened: as §1

NCI-H2228 = system: NCI-H2228
Procedure, shortened: as §1

NCI-H2405 = system: NCI-H2405
Procedure, shortened: as §1

NCI-H3122 = system: NCI-H3122
Procedure, shortened: as §1

NCI-H322M = system: NCI-H322M
Procedure, shortened: as §1

NCI-H441 = system: NCI-H441
Procedure, shortened: as §1

NCI-H460 = system: NCI-H460
Procedure, shortened: as §1

NCI-H596 = system: NCI-H596
Procedure, shortened: as §1

PC-14 = system: PC-14
Procedure, shortened: as §1

SW 1573 = system: SW 1573
Procedure, shortened: as §1

SW 900 = system: SW 900
Procedure, shortened: as §1

Nc1cccc2c1CN(C1CCC(=O)NC1=O)C2=O (stereo not given) [Lenalidomide] + COc1cccc2cc(-c3nc([C@H]4CC[C@H](C(=O)O)CC4)n4ncnc(N)c34)[nH]c12 [OSI-027] (partner 0.5 µM)
relative viability (COR-L23; first compound 0.253 µM): 0.781
relative viability (COR-L23; first compound 0.8 µM): 0.776
relative viability (COR-L23; first compound 2.53 µM): 0.892
relative viability (COR-L23; first compound 8 µM): 0.787
relative viability (ChaGo-K-1; first compound 0.253 µM): 0.586
relative viability (ChaGo-K-1; first compound 0.8 µM): 0.441
relative viability (ChaGo-K-1; first compound 2.53 µM): 0.656
relative viability (ChaGo-K-1; first compound 8 µM): 0.548
relative viability (EMC-BAC-2; first compound 0.253 µM): 0.38
relative viability (EMC-BAC-2; first compound 0.8 µM): 0.349
relative viability (EMC-BAC-2; first compound 2.53 µM): 0.393
relative viability (EMC-BAC-2; first compound 8 µM): 0.344
relative viability (EPLC-272H; first compound 0.253 µM): 0.297
relative viability (EPLC-272H; first compound 0.8 µM): 0.339
relative viability (EPLC-272H; first compound 2.53 µM): 0.292
relative viability (EPLC-272H; first compound 8 µM): 0.283
relative viability (HCC-44; first compound 0.253 µM): 0.636
relative viability (HCC-44; first compound 2.53 µM): 0.535
relative viability (HCC-44; first compound 8 µM): 0.512
relative viability (HOP-62; first compound 0.253 µM): 0.685
relative viability (HOP-62; first compound 0.8 µM): 0.802
relative viability (HOP-62; first compound 2.53 µM): 0.998
relative viability (HOP-62; first compound 8 µM): 0.789
relative viability (LCLC-103H; first compound 0.253 µM): 0.433
relative viability (LCLC-103H; first compound 0.8 µM): 0.433
relative viability (LCLC-103H; first compound 2.53 µM): 0.512
relative viability (LCLC-103H; first compound 8 µM): 0.473
relative viability (LK-2; first compound 0.253 µM): 0.215
relative viability (LK-2; first compound 0.8 µM): 0.19
relative viability (LK-2; first compound 2.53 µM): 0.191
relative viability (LK-2; first compound 8 µM): 0.182
relative viability (NCI-H1355; first compound 0.253 µM): 0.449
relative viability (NCI-H1355; first compound 2.53 µM): 0.436
relative viability (NCI-H1355; first compound 8 µM): 0.362
relative viability (NCI-H1666; first compound 0.253 µM): 0.822
relative viability (NCI-H1666; first compound 2.53 µM): 0.927
relative viability (NCI-H1666; first compound 8 µM): 0.894
relative viability (NCI-H1944; first compound 0.253 µM): 0.412
relative viability (NCI-H1944; first compound 0.8 µM): 0.372
relative viability (NCI-H1944; first compound 2.53 µM): 0.491
relative viability (NCI-H1944; first compound 8 µM): 0.36
relative viability (NCI-H1975; first compound 0.253 µM): 0.817
relative viability (NCI-H1975; first compound 0.8 µM): 0.661
relative viability (NCI-H1975; first compound 2.53 µM): 0.79
relative viability (NCI-H1975; first compound 8 µM): 0.595
relative viability (NCI-H2023; first compound 0.253 µM): 0.418
relative viability (NCI-H2023; first compound 0.8 µM): 0.337
relative viability (NCI-H2023; first compound 2.53 µM): 0.545
relative viability (NCI-H2023; first compound 8 µM): 0.451
relative viability (NCI-H2087; first compound 0.253 µM): 0.679
relative viability (NCI-H2087; first compound 0.8 µM): 0.501
relative viability (NCI-H2087; first compound 2.53 µM): 0.521
relative viability (NCI-H2087; first compound 8 µM): 0.712
relative viability (NCI-H2126; first compound 0.253 µM): 0.66
relative viability (NCI-H2126; first compound 0.8 µM): 0.609
relative viability (NCI-H2126; first compound 2.53 µM): 0.663
relative viability (NCI-H2126; first compound 8 µM): 0.593
relative viability (NCI-H2228; first compound 0.253 µM): 0.568
relative viability (NCI-H2228; first compound 0.8 µM): 0.641
relative viability (NCI-H2228; first compound 2.53 µM): 0.672
relative viability (NCI-H2228; first compound 8 µM): 0.473
relative viability (NCI-H2405; first compound 0.253 µM): 0.586
relative viability (NCI-H2405; first compound 0.8 µM): 0.706
relative viability (NCI-H2405; first compound 2.53 µM): 0.588
relative viability (NCI-H2405; first compound 8 µM): 0.596
relative viability (NCI-H3122; first compound 0.253 µM): 0.97
relative viability (NCI-H3122; first compound 0.8 µM): 1.21
relative viability (NCI-H3122; first compound 2.53 µM): 0.914
relative viability (NCI-H3122; first compound 8 µM): 0.898
relative viability (NCI-H322M; first compound 0.253 µM): 0.53
relative viability (NCI-H322M; first compound 0.8 µM): 0.527
relative viability (NCI-H322M; first compound 2.53 µM): 0.609
relative viability (NCI-H322M; first compound 8 µM): 0.558
relative viability (NCI-H441; first compound 0.253 µM): 0.485
relative viability (NCI-H441; first compound 0.8 µM): 0.666
relative viability (NCI-H441; first compound 2.53 µM): 0.876
relative viability (NCI-H441; first compound 8 µM): 0.631
relative viability (NCI-H460; first compound 0.253 µM): 0.643
relative viability (NCI-H460; first compound 0.8 µM): 0.679
relative viability (NCI-H460; first compound 2.53 µM): 1.01
relative viability (NCI-H460; first compound 8 µM): 0.709
relative viability (NCI-H596; first compound 0.253 µM): 0.784
relative viability (NCI-H596; first compound 2.53 µM): 0.764
relative viability (NCI-H596; first compound 8 µM): 0.532
relative viability (PC-14; first compound 0.253 µM): 0.791
relative viability (PC-14; first compound 0.8 µM): 0.853
relative viability (PC-14; first compound 2.53 µM): 1.2
relative viability (PC-14; first compound 8 µM): 1.02
relative viability (SW 1573; first compound 0.253 µM): 0.573
relative viability (SW 1573; first compound 0.8 µM): 0.712
relative viability (SW 1573; first compound 2.53 µM): 0.792
relative viability (SW 1573; first compound 8 µM): 0.565
relative viability (SW 900; first compound 0.253 µM): 0.559
relative viability (SW 900; first compound 2.53 µM): 0.742
relative viability (SW 900; first compound 8 µM): 0.532
